#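 The compound was tested at five concentrations on cells cultured in 96-well plates, with a 48-hour exposure period. TGI: total growth inhibition.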
# How the values were obtained:
# Test in all cases: DTP human tumour cell line panel, 48 h
# SK-OV-3 ovarian = test system: SK-OV-3 ovarian
# SNB-75 CNS = test system: SNB-75 CNS
# SK-MEL-28 melanoma = test system: SK-MEL-28 melanoma
# A498 renal = test system: A498 renal
# SK-MEL-2 melanoma = test system: SK-MEL-2 melanoma
# 786-0 renal = test system: 786-0 renal
# UO-31 renal = test system: UO-31 renal
# SK-MEL-5 melanoma = test system: SK-MEL-5 melanoma
# NCI-H226 lung = test system: NCI-H226 lung
# KM12 colon = test system: KM12 colon
# RPMI-8226 leukemia = test system: RPMI-8226 leukemia
# SF-539 CNS = test system: SF-539 CNS
# HL-60(TB) leukemia = test system: HL-60(TB) leukemia
# DMS 273 small cell lung = test system: DMS 273 small cell lung
# OVCAR-8 ovarian = test system: OVCAR-8 ovarian
# SNB-19 CNS = test system: SNB-19 CNS
# A549 NSCLC = test system: A549 NSCLC
# HOP-62 NSCLC = test system: HOP-62 NSCLC
# CCRF-CEM leukemia = test system: CCRF-CEM leukemia
# SF-295 CNS = test system: SF-295 CNS
# HCC-2998 colon = test system: HCC-2998 colon
# ACHN renal = test system: ACHN renal
# UACC-62 melanoma = test system: UACC-62 melanoma
# UACC-257 melanoma = test system: UACC-257 melanoma
# NCI-H522 lung = test system: NCI-H522 lung
# SR leukemia = test system: SR leukemia
# HT29 colon = test system: HT29 colon
# OVCAR-5 ovarian = test system: OVCAR-5 ovarian
# NCI-H460 lung = test system: NCI-H460 lung
# U251 CNS = test system: U251 CNS
# HOP-18 NSCLC = test system: HOP-18 NSCLC
# MALME-3M melanoma = test system: MALME-3M melanoma
# M19-MEL melanoma = test system: M19-MEL melanoma
# MOLT-4 leukemia = test system: MOLT-4 leukemia
# OVCAR-3 ovarian = test system: OVCAR-3 ovarian
# HCT-15 colon = test system: HCT-15 colon
# RXF 393 renal = test system: RXF 393 renal
# SN12C renal = test system: SN12C renal
# M14 melanoma = test system: M14 melanoma
# NCI-H23 lung = test system: NCI-H23 lung
# EKVX NSCLC = test system: EKVX NSCLC
# SF-268 CNS = test system: SF-268 CNS
# HCT-116 colon = test system: HCT-116 colon
# OVCAR-4 ovarian = test system: OVCAR-4 ovarian
# XF 498 CNS = test system: XF 498 CNS
# K-562 leukemia = test system: K-562 leukemia
# COLO 205 colon = test system: COLO 205 colon
# IGROV1 ovarian = test system: IGROV1 ovarian
# DMS 114 small cell lung = test system: DMS 114 small cell lung
# KM20L2 colon = test system: KM20L2 colon
# LOX IMVI melanoma = test system: LOX IMVI melanoma
# DLD-1 colon = test system: DLD-1 colon
# SNB-78 CNS = test system: SNB-78 CNS
# SW-620 colon = test system: SW-620 colon
# LXFL 529 NSCLC = test system: LXFL 529 NSCLC
# TK-10 renal = test system: TK-10 renal
# CAKI-1 renal = test system: CAKI-1 renal
# HOP-92 NSCLC = test system: HOP-92 NSCLC
smiles,measurement,setting,value
CC(C)C(=O)N1C(=O)O[C@@H](c2ccccc2)[C@H]1C,TGI,SK-OV-3 ovarian,> 100 µM
same,TGI,SNB-75 CNS,> 100 µM
same,TGI,SK-MEL-28 melanoma,> 100 µM
same,TGI,A498 renal,> 100 µM
same,TGI,SK-MEL-2 melanoma,> 100 µM
same,TGI,786-0 renal,> 100 µM
same,TGI,UO-31 renal,> 100 µM
same,TGI,SK-MEL-5 melanoma,> 100 µM
same,TGI,NCI-H226 lung,> 100 µM
same,TGI,KM12 colon,> 100 µM
same,TGI,RPMI-8226 leukemia,> 100 µM
same,TGI,SF-539 CNS,> 100 µM
same,TGI,HL-60(TB) leukemia,> 100 µM
same,TGI,DMS 273 small cell lung,> 100 µM
same,TGI,OVCAR-8 ovarian,> 100 µM
same,TGI,SNB-19 CNS,> 64.7 µM
same,TGI,A549 NSCLC,> 100 µM
same,TGI,HOP-62 NSCLC,> 100 µM
same,TGI,CCRF-CEM leukemia,> 100 µM
same,TGI,SF-295 CNS,> 100 µM
same,TGI,HCC-2998 colon,> 100 µM
same,TGI,ACHN renal,> 100 µM
same,TGI,UACC-62 melanoma,> 100 µM
same,TGI,UACC-257 melanoma,> 100 µM
same,TGI,NCI-H522 lung,> 100 µM
same,TGI,SR leukemia,> 100 µM
same,TGI,HT29 colon,> 100 µM
same,TGI,OVCAR-5 ovarian,> 100 µM
same,TGI,NCI-H460 lung,> 100 µM
same,TGI,U251 CNS,> 100 µM
same,TGI,HOP-18 NSCLC,> 100 µM
same,TGI,MALME-3M melanoma,> 100 µM
same,TGI,M19-MEL melanoma,> 100 µM
same,TGI,MOLT-4 leukemia,> 100 µM
same,TGI,OVCAR-3 ovarian,> 100 µM
same,TGI,HCT-15 colon,> 100 µM
same,TGI,RXF 393 renal,> 100 µM
same,TGI,SN12C renal,> 100 µM
same,TGI,M14 melanoma,> 100 µM
same,TGI,NCI-H23 lung,> 100 µM
same,TGI,EKVX NSCLC,> 100 µM
same,TGI,SF-268 CNS,> 100 µM
same,TGI,HCT-116 colon,> 100 µM
same,TGI,OVCAR-4 ovarian,> 100 µM
same,TGI,XF 498 CNS,> 100 µM
same,TGI,K-562 leukemia,> 100 µM
same,TGI,COLO 205 colon,> 100 µM
same,TGI,IGROV1 ovarian,> 100 µM
same,TGI,DMS 114 small cell lung,> 100 µM
same,TGI,KM20L2 colon,> 100 µM
same,TGI,LOX IMVI melanoma,> 100 µM
same,TGI,DLD-1 colon,> 100 µM
same,TGI,SNB-78 CNS,> 100 µM
same,TGI,SW-620 colon,> 100 µM
same,TGI,LXFL 529 NSCLC,> 100 µM
same,TGI,TK-10 renal,> 100 µM
same,TGI,CAKI-1 renal,97.9 µM
same,TGI,HOP-92 NSCLC,> 100 µM
Cc1cccc(C)c1NC(=O)C(=O)C(C#N)c1ccccc1Cl (configuration not stated),TGI,SK-OV-3 ovarian,> 100 µM
same,TGI,SNB-75 CNS,> 100 µM
same,TGI,SK-MEL-28 melanoma,> 100 µM
same,TGI,A498 renal,> 100 µM
same,TGI,SK-MEL-2 melanoma,> 100 µM
same,TGI,786-0 renal,> 100 µM
same,TGI,UO-31 renal,> 100 µM
same,TGI,SK-MEL-5 melanoma,> 100 µM
same,TGI,NCI-H226 lung,> 100 µM
same,TGI,KM12 colon,> 100 µM
same,TGI,RPMI-8226 leukemia,> 100 µM
same,TGI,SF-539 CNS,> 100 µM
same,TGI,HL-60(TB) leukemia,> 100 µM
same,TGI,DMS 273 small cell lung,> 100 µM
same,TGI,OVCAR-8 ovarian,> 100 µM
same,TGI,SNB-19 CNS,> 100 µM
same,TGI,A549 NSCLC,> 100 µM
same,TGI,HOP-62 NSCLC,> 100 µM
same,TGI,CCRF-CEM leukemia,> 100 µM
same,TGI,SF-295 CNS,> 100 µM
same,TGI,HCC-2998 colon,> 100 µM
same,TGI,ACHN renal,> 100 µM
same,TGI,UACC-62 melanoma,> 100 µM
same,TGI,UACC-257 melanoma,> 100 µM
same,TGI,NCI-H522 lung,> 100 µM
same,TGI,SR leukemia,> 100 µM
same,TGI,HT29 colon,> 100 µM
same,TGI,OVCAR-5 ovarian,> 100 µM
same,TGI,NCI-H460 lung,> 100 µM
same,TGI,U251 CNS,> 100 µM
same,TGI,HOP-18 NSCLC,> 100 µM
same,TGI,MALME-3M melanoma,> 100 µM
same,TGI,M19-MEL melanoma,> 100 µM
same,TGI,MOLT-4 leukemia,> 100 µM
same,TGI,OVCAR-3 ovarian,> 100 µM
same,TGI,HCT-15 colon,> 100 µM
same,TGI,RXF 393 renal,> 100 µM
same,TGI,SN12C renal,> 100 µM
same,TGI,M14 melanoma,> 100 µM
same,TGI,NCI-H23 lung,> 100 µM
same,TGI,EKVX NSCLC,> 100 µM
same,TGI,SF-268 CNS,> 100 µM
same,TGI,HCT-116 colon,> 100 µM
same,TGI,OVCAR-4 ovarian,> 100 µM
same,TGI,XF 498 CNS,> 100 µM
same,TGI,K-562 leukemia,> 100 µM
same,TGI,COLO 205 colon,> 100 µM
same,TGI,IGROV1 ovarian,> 100 µM
same,TGI,DMS 114 small cell lung,> 100 µM
same,TGI,KM20L2 colon,> 100 µM
same,TGI,DLD-1 colon,> 100 µM
same,TGI,SNB-78 CNS,> 100 µM
same,TGI,SW-620 colon,> 100 µM
same,TGI,LXFL 529 NSCLC,> 100 µM
same,TGI,TK-10 renal,> 100 µM
same,TGI,CAKI-1 renal,> 100 µM
same,TGI,HOP-92 NSCLC,> 100 µM
Cc1cccc(C)c1NC(=O)CCC(=O)CC(=O)C(C)C,TGI,SK-OV-3 ovarian,> 100 µM
same,TGI,SNB-75 CNS,> 100 µM
same,TGI,SK-MEL-28 melanoma,> 100 µM
same,TGI,A498 renal,> 100 µM
same,TGI,SK-MEL-2 melanoma,> 100 µM
same,TGI,786-0 renal,> 100 µM
same,TGI,UO-31 renal,> 100 µM
same,TGI,SK-MEL-5 melanoma,> 100 µM
same,TGI,NCI-H226 lung,> 100 µM
same,TGI,KM12 colon,> 100 µM
same,TGI,RPMI-8226 leukemia,> 100 µM
same,TGI,SF-539 CNS,> 100 µM
same,TGI,HL-60(TB) leukemia,> 100 µM
same,TGI,DMS 273 small cell lung,> 100 µM
same,TGI,OVCAR-8 ovarian,> 100 µM
same,TGI,SNB-19 CNS,> 100 µM
same,TGI,A549 NSCLC,> 100 µM
same,TGI,HOP-62 NSCLC,> 100 µM
same,TGI,CCRF-CEM leukemia,> 100 µM
same,TGI,SF-295 CNS,> 100 µM
same,TGI,HCC-2998 colon,> 100 µM
same,TGI,ACHN renal,> 100 µM
same,TGI,UACC-62 melanoma,> 100 µM
same,TGI,UACC-257 melanoma,> 100 µM
same,TGI,NCI-H522 lung,> 100 µM
same,TGI,SR leukemia,> 100 µM
same,TGI,HT29 colon,> 100 µM
same,TGI,OVCAR-5 ovarian,> 100 µM
same,TGI,NCI-H460 lung,> 100 µM
same,TGI,U251 CNS,> 100 µM
same,TGI,HOP-18 NSCLC,> 100 µM
same,TGI,MALME-3M melanoma,> 100 µM
same,TGI,M19-MEL melanoma,> 100 µM
same,TGI,MOLT-4 leukemia,> 100 µM
same,TGI,OVCAR-3 ovarian,> 100 µM
same,TGI,HCT-15 colon,> 100 µM
same,TGI,RXF 393 renal,> 100 µM
same,TGI,SN12C renal,> 100 µM
same,TGI,M14 melanoma,> 100 µM
same,TGI,NCI-H23 lung,> 100 µM
same,TGI,EKVX NSCLC,> 100 µM
same,TGI,SF-268 CNS,> 100 µM
same,TGI,HCT-116 colon,> 100 µM
same,TGI,OVCAR-4 ovarian,> 100 µM
same,TGI,XF 498 CNS,> 100 µM
same,TGI,K-562 leukemia,> 100 µM
same,TGI,COLO 205 colon,> 100 µM
same,TGI,IGROV1 ovarian,> 100 µM
same,TGI,DMS 114 small cell lung,> 100 µM
same,TGI,KM20L2 colon,> 100 µM
same,TGI,DLD-1 colon,> 100 µM
same,TGI,SNB-78 CNS,> 100 µM
same,TGI,SW-620 colon,> 100 µM
same,TGI,LXFL 529 NSCLC,> 100 µM
same,TGI,TK-10 renal,> 100 µM
same,TGI,CAKI-1 renal,> 100 µM
same,TGI,HOP-92 NSCLC,> 100 µM
